pIC50: −log10 of the molar value.

The test addresses Protein farnesyltransferase (Homo sapiens, UniProt P49354+P49356). Nature of the test: Inhibitory activity against K-Ras farnesyl transferase. It is filed as protein-complex assay.
One may read the pIC50 as −log10 of the IC50, conventionally taken in molar units. Lower therefore signals a high IC50. For the compound `COc1ccc(CCN(Cc2nncn2Cc2ccc(C#N)cc2)C(=O)c2ccc3ccccc3n2)cc1`, the pIC50 was 7.12. On to `N#Cc1ccc(Cn2cnnc2CN(C(=O)c2ccc3ccccc3n2)c2ccc(Oc3ccccc3)cc2)cc1`, for which the negative-log IC50 (pIC50) is 7.36. The same measure for `N#Cc1ccc(Cn2nnnc2CN(Cc2ccc(F)cc2F)C(=O)c2ccc3ccccc3n2)cc1`: < 6.00; for `N#Cc1ccc(Cn2cnnc2CN(Cc2ccc(F)cc2F)C(=O)c2ccc3ccccc3c2)cc1`: 8.66. The same measure for `N#Cc1ccc(Cn2cnnc2CN(CCc2ccc(F)cc2)C(=O)c2ccc3ccccc3n2)cc1`: 7.72; for `N#Cc1ccc(Cn2cnnc2CN(Cc2ccc([N+](=O)[O-])cc2)C(=O)c2ccc3ccccc3n2)cc1`: 8.80; for `N#Cc1ccc(Cn2cnnc2CN(CCc2ccc(Br)cc2)C(=O)c2cc3ccccc3s2)cc1`: 7.05. The result for `N#Cc1ccc(Cn2cncc2CN(Cc2ccc(F)cc2F)C(=O)c2ccc3ccccc3n2)cc1` reads 6.73; that for `N#Cc1ccc(Cn2cnnc2CN(CCc2ccc(Br)cc2)C(=O)c2cc3ccccc3o2)cc1`, 7.27. `N#Cc1ccc(Cn2cnnc2CN(CCc2ccc(Br)cc2)C(=O)c2ccc3ccccc3c2)cc1` had a pIC50 of 7.55. The result for `N#Cc1ccc(Cn2cnnc2CN(CCc2ccc(Br)cc2)C(=O)c2ccc3ccccc3n2)cc1` reads 7.59; that for `N#Cc1ccc(Cn2cnnc2CN(CCc2ccc(Br)cc2)C(=O)c2ccc3c(c2)OCO3)cc1`, 7.21. The result for `N#Cc1ccc(Cn2cnnc2CN(Cc2ccc(F)cc2)C(=O)c2ccc3ccccc3n2)cc1` reads 8.30; that for `N#Cc1ccc(Cn2cnnc2CN(Cc2ccc(F)cc2F)C(=O)c2ccc3ccccc3n2)nc1`, 8.26; that for `Cc1nnc(CN(Cc2ccc(F)cc2F)C(=O)c2ccc3ccccc3n2)n1Cc1ccc(C#N)cc1`, 9.05.

For `N#Cc1ccc(Cn2cnnc2CN(Cc2ccc(F)cc2F)C(=O)c2ccc3ccccc3n2)cc1`, the pIC50 was 8.46.

Regarding `N#Cc1ccc(Cn2cnnc2CN(CCc2ccc(Br)cc2)C(=O)c2ccco2)cc1`, the negative-log IC50 (pIC50) is 7.00. For `COc1cc(C(=O)N(CCc2ccc(Br)cc2)Cc2nncn2Cc2ccc(C#N)cc2)nc2ccccc12`, the negative-log IC50 (pIC50) was 7.02.

The values are drawn from ChEMBL document CHEMBL1141966, “Novel triazole based inhibitors of Ras farnesyl transferase” (Bioorg Med Chem Lett, 2005).
